{"source": "patent US20050109704A1", "about": "“Potable water delivery system with disinfection and residual discharge unit and method” (Pure H2O Bio-Technologies, Inc., priority 2003, published 2005)", "key": {"E. coli": {"test_system": "E. coli", "assay": "Iodine Disinfection of E. coli", "assay_type": "cell-based, Escherichia coli", "details": "ambient (˜23° C.); for Raw counts, Average / Raw counts, Treated Rep.: undiluted/10 mL analyzed", "from_the_text": "(§1) At CT values of 50, the Log 10 reductions were greater than 8.0. CT is a common measurement unit referring to concentration in parts per million multiplied by time (in minutes). CFU is known as colony forming units per milliliter. […] See references: Block, S. S., 1977. Disinfection, Sterilization and Preservation. Lea & Febiger, Philadelphia. 2nd edition."}, "E. faecalis": {"test_system": "E. faecalis", "assay": "Iodine Disinfection of E. faecalis", "assay_type": "cell-based, Enterococcus faecalis", "details": "ambient (˜23° C.)", "from_the_text": "as §1"}, "P. aeruginosa": {"test_system": "P. aeruginosa", "assay": "Iodine Disinfection of P. aeruginosa", "assay_type": "cell-based, Pseudomonas aeruginosa", "details": "ambient (˜23° C.); for Raw counts, Average / Raw counts, Treated Rep.: undiluted/10 mL analyzed", "from_the_text": "as §1"}, "[1]": {"test_system": "Escherichia coli, Pseudomonas aeruginosa and, Enterococcus faecalis", "assay": "Iodine disinfection of bacteria, summary by CT value", "assay_type": "cell-based", "details": "CT values of 50 (ppm x min)", "from_the_text": "as §1"}, "[2]": {"test_system": "waterborne microbial contamination", "details": "3-4 ppm for 12 min at 24° C. (CT value of about 48); cited from earlier work"}, "[3]": {"details": "5 mg/L 5 min, undiluted/10 mL analyzed"}, "[4]": {"details": "5 mg/L 10 min, undiluted/10 mL analyzed"}, "[5]": {"details": "15 mg/L 5 min, undiluted/10 mL analyzed"}}, "note": "Values joined by “and” are separate entries in the source; they are usually repeats but may differ in a detail not shown here. Equal entries are not always repeated.", "data": [{"smiles": "II", "values": [{"measurement": "Log10/mL", "setting": "E. coli; 5 mg/L 5 min", "result": 1.2, "unit": "Log10/mL"}, {"measurement": "Log10 removal", "setting": "E. coli; 5 mg/L 5 min", "result": 5.7, "unit": "Log10"}, {"measurement": "cfu/mL, Average", "setting": "E. coli; 5 mg/L 5 min", "result": "1.7 × 10^1 cfu/mL"}, {"measurement": "Raw counts, Average", "setting": "E. coli; 5 mg/L 5 min", "result": 175}, {"measurement": "Raw counts, Treated Rep.", "setting": "E. coli; 5 mg/L 5 min", "result": "171 and 168 and 185"}, {"measurement": "Log10/mL", "setting": "E. coli; 5 mg/L 10 min", "result": "<−1.0", "unit": "Log10/mL"}, {"measurement": "Log10 removal", "setting": "E. coli; 5 mg/L 10 min", "result": ">8.0", "unit": "Log10"}, {"measurement": "cfu/mL, Average", "setting": "E. coli; 5 mg/L 10 min", "result": "<0.1", "unit": "cfu/mL"}, {"measurement": "Raw counts, Average", "setting": "E. coli; 5 mg/L 10 min", "result": 0}, {"measurement": "Raw counts, Treated Rep.", "setting": "E. coli; 5 mg/L 10 min", "result": 0}, {"measurement": "Log10/mL", "setting": "E. coli; 5 mg/L 15 min", "result": "<−1.0", "unit": "Log10/mL"}, {"measurement": "Log10 removal", "setting": "E. coli; 5 mg/L 15 min", "result": ">8.0", "unit": "Log10"}, {"measurement": "cfu/mL, Average", "setting": "E. coli; 5 mg/L 15 min", "result": "<0.1", "unit": "cfu/mL"}, {"measurement": "Raw counts, Average", "setting": "E. coli; 5 mg/L 15 min", "result": 0}, {"measurement": "Raw counts, Treated Rep.", "setting": "E. coli; 5 mg/L 15 min", "result": 0}, {"measurement": "Log10/mL", "setting": "E. coli; 15 mg/L 5 min", "result": "<−1.0", "unit": "Log10/mL"}, {"measurement": "Log10 removal", "setting": "E. coli; 15 mg/L 5 min", "result": ">8.0", "unit": "Log10"}, {"measurement": "cfu/mL, Average", "setting": "E. coli; 15 mg/L 5 min", "result": "<0.1", "unit": "cfu/mL"}, {"measurement": "Raw counts, Average", "setting": "E. coli; 15 mg/L 5 min", "result": 0}, {"measurement": "Raw counts, Treated Rep.", "setting": "E. coli; 15 mg/L 5 min", "result": 0}, {"measurement": "Log10/mL", "setting": "E. faecalis; 5 mg/L 5 min", "result": 0.6, "unit": "Log10/mL"}, {"measurement": "Log10 removal", "setting": "E. faecalis; 5 mg/L 5 min", "result": 6.2, "unit": "Log10"}, {"measurement": "cfu/mL, Average", "setting": "E. faecalis; 5 mg/L 5 min", "result": "3.9 × 10^0 cfu/mL"}, {"measurement": "Raw counts, Average", "setting": "E. faecalis; [3]", "result": 39}, {"measurement": "Raw counts, Treated Rep.", "setting": "E. faecalis; [3]", "result": "49 and 38 and 31"}, {"measurement": "Log10/mL", "setting": "E. faecalis; 5 mg/L 10 min", "result": "<−1.0", "unit": "Log10/mL"}, {"measurement": "Log10 removal", "setting": "E. faecalis; 5 mg/L 10 min", "result": ">7.8", "unit": "Log10"}, {"measurement": "cfu/mL, Average", "setting": "E. faecalis; 5 mg/L 10 min", "result": "<0.1", "unit": "cfu/mL"}, {"measurement": "Raw counts, Average", "setting": "E. faecalis; [4]", "result": 0}, {"measurement": "Raw counts, Treated Rep.", "setting": "E. faecalis; [4]", "result": 0}, {"measurement": "Log10/mL", "setting": "E. faecalis; 5 mg/L 15 min", "result": "<−1.0", "unit": "Log10/mL"}, {"measurement": "Log10 removal", "setting": "E. faecalis; 5 mg/L 15 min", "result": ">7.8", "unit": "Log10"}, {"measurement": "Raw counts, Average", "setting": "E. faecalis; 5 mg/L 15 min", "result": 0}, {"measurement": "Raw counts, Treated Rep.", "setting": "E. faecalis; 5 mg/L 15 min", "result": 0}, {"measurement": "cfu/mL, Average", "setting": "E. faecalis; 5 mg/L 15 min", "result": "<0.1", "unit": "cfu/mL"}, {"measurement": "Log10/mL", "setting": "E. faecalis; 15 mg/L 5 min", "result": "<−1.0", "unit": "Log10/mL"}, {"measurement": "Log10 removal", "setting": "E. faecalis; 15 mg/L 5 min", "result": ">7.8", "unit": "Log10"}, {"measurement": "cfu/mL, Average", "setting": "E. faecalis; 15 mg/L 5 min", "result": "<0.1", "unit": "cfu/mL"}, {"measurement": "Raw counts, Average", "setting": "E. faecalis; [5]", "result": 0}, {"measurement": "Raw counts, Treated Rep.", "setting": "E. faecalis; [5]", "result": 0}, {"measurement": "Log10/mL", "setting": "P. aeruginosa; 5 mg/L 5 min", "result": 1.2, "unit": "Log10/mL"}, {"measurement": "Log10 removal", "setting": "P. aeruginosa; 5 mg/L 5 min", "result": 5.7, "unit": "Log10"}, {"measurement": "cfu/mL, Average", "setting": "P. aeruginosa; 5 mg/L 5 min", "result": "1.7 × 10^1 cfu/mL"}, {"measurement": "Raw counts, Average", "setting": "P. aeruginosa; 5 mg/L 5 min", "result": 175}, {"measurement": "Raw counts, Treated Rep.", "setting": "P. aeruginosa; 5 mg/L 5 min", "result": "171 and 168 and 185"}, {"measurement": "Log10/mL", "setting": "P. aeruginosa; 5 mg/L 10 min", "result": "<−1.0", "unit": "Log10/mL"}, {"measurement": "Log10 removal", "setting": "P. aeruginosa; 5 mg/L 10 min", "result": ">7.9", "unit": "Log10"}, {"measurement": "cfu/mL, Average", "setting": "P. aeruginosa; 5 mg/L 10 min", "result": "<0.1", "unit": "cfu/mL"}, {"measurement": "Raw counts, Average", "setting": "P. aeruginosa; 5 mg/L 10 min", "result": 0}, {"measurement": "Raw counts, Treated Rep.", "setting": "P. aeruginosa; 5 mg/L 10 min", "result": 0}, {"measurement": "Log10/mL", "setting": "P. aeruginosa; 5 mg/L 15 min", "result": "<−1.0", "unit": "Log10/mL"}, {"measurement": "Log10 removal", "setting": "P. aeruginosa; 5 mg/L 15 min", "result": ">7.9", "unit": "Log10"}, {"measurement": "cfu/mL, Average", "setting": "P. aeruginosa; 5 mg/L 15 min", "result": "<0.1", "unit": "cfu/mL"}, {"measurement": "Raw counts, Average", "setting": "P. aeruginosa; 5 mg/L 15 min", "result": 0}, {"measurement": "Raw counts, Treated Rep.", "setting": "P. aeruginosa; 5 mg/L 15 min", "result": 0}, {"measurement": "Log10/mL", "setting": "P. aeruginosa; 15 mg/L 5 min", "result": "<−1.0", "unit": "Log10/mL"}, {"measurement": "Log10 removal", "setting": "P. aeruginosa; 15 mg/L 5 min", "result": ">7.9", "unit": "Log10"}, {"measurement": "cfu/mL, Average", "setting": "P. aeruginosa; 15 mg/L 5 min", "result": "<0.1", "unit": "cfu/mL"}, {"measurement": "Raw counts, Average", "setting": "P. aeruginosa; 15 mg/L 5 min", "result": 0}, {"measurement": "Raw counts, Treated Rep.", "setting": "P. aeruginosa; 15 mg/L 5 min", "result": 0}, {"measurement": "Log 10 reductions", "setting": "[1]", "result": "greater than 8.0 Log 10"}, {"measurement": "waterborne microbial contamination reduced", "setting": "[2]", "result": "≥ 7", "unit": "logs"}]}]}
